From patent publication US10196373B2, “Substituted 2-hydroxy-4-(2-(phenylsulfonamido)acetamido)benzoic acid analogs as inhibitors of STAT protein” (University of Central Florida Research Foundation, Inc., priority 2010, dated 2019) come the findings set out here.

Structures are written as SMILES.

Chain of STAT3 (P40763 whole entry): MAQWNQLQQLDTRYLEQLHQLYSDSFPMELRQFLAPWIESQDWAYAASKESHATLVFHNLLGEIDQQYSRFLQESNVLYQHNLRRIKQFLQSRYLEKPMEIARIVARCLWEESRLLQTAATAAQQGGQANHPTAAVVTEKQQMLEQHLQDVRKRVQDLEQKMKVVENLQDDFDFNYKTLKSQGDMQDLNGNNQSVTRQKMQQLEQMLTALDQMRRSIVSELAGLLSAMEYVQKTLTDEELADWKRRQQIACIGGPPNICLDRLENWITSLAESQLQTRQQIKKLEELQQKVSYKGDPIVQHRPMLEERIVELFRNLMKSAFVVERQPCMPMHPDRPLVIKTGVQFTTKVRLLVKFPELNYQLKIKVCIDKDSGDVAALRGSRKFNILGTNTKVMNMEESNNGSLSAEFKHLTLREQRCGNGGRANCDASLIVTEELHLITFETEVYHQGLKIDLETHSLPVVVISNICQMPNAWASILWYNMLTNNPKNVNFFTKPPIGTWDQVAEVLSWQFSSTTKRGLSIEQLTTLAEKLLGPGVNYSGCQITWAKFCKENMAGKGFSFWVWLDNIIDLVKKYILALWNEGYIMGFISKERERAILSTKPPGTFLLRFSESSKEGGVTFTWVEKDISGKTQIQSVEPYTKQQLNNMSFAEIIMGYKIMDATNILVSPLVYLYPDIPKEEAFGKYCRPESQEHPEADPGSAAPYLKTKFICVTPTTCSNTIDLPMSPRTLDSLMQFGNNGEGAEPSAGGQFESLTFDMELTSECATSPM

The assay has as its target STAT3 (Homo sapiens (Human), UniProt P40763). The experiment in a line: Fluorescence polarization assay, inhibition of binding to STAT3. The following applies: inhibition of binding to STAT3 in a fluorescence polarization assay; read-out: Ki (FP). On the procedure: The fluorescent polarization experiments were performed on an Infinite M1000 (Tecan, Crailsheim, Germany). All assays were performed in the same buffer conditions of 50 mM NaCl, 10 mM Hepes, pH 7.5, 1 mM EDTA, and 2 mM dithiothreitol. Fluorescent-labelled peptides were kept at a final concentration of 10nM in buffered solution. […] of labelled peptides were added to […] of a 300 nM STAT3 protein solution (provided by SignalChem in 50 mM Tris-HCl, pH 7.5, 150 mM NaCl, 0.25 mM DTT, 0.1 mM PMSF, 25% glycerol and stored at −80° C.). Inhibitory molecules were dissolved in pure DMSO and diluted using buffer solution to produce four final concentrations ([…]). 7.5 μL of the inhibitory molecule solution was mixed with the STAT3 protein and labelled peptide solution in black 384-flat well microplates (Coming), and incubated for 15-30 minutes. The M1000 performed a shaking cycle and then read the plates. IC50′s were derived from the output using the curve-fitting software OriginPro 8 (Northampton, MA). The FP data was modelled by the following equation:
[formula] where X was the concentration of inhibitor and ρwas the corresponding fluorescence at that concentration. The free parameter was half the maximal inhibitory concentration (IC50) and the limiting values was the maximal measured fluorescence polarization (ρ1) and the minimal fluorescence polarization (ρ2). Origin curve fitting software utilizes the Levenberg-Marquardt algorithm and reduced chi-square criterion for convergence. The inhibitor dissociation constant, Ki, was calculated from the derived IC50 values, as per the following formula: […]
Further details of the fluorescence polarization assay are as described previously (Zhang X, et al. (2010) A novel small-molecule disrupts Stat3 SH2domainphosphotyrosine interactions and Stat3-dependent tumor processes. Biochem Pharmacol 79: 1398-1409).
(In general: Fluorescence polarisation rises when a labelled molecule tumbles more slowly, as on binding a larger partner.)
Regarding `Cc1ccc(S(=O)(=O)N(CC(=O)N(Cc2ccc(C3CCCCC3)cc2)c2ccc(C(=O)O)c(O)c2)Cc2ccccc2)cc1` [BP2-027], the Ki worked out at 7.2 ± 2.2 µM.
To `Cc1ccc(CN(CC(=O)N(Cc2ccc(C3CCCCC3)cc2)c2ccc(C(=O)O)c(O)c2)S(=O)(=O)c2ccc(C)cc2)cc1` [BP2-028] belongs above 50 µM.
To `Cc1ccc(S(=O)(=O)N2CCC[C@H]2C(=O)N(Cc2ccc(C3CCCCC3)cc2)c2ccc(C(=O)O)c(O)c2)cc1` [BP2-029] belongs 33 ± 22 µM.
To `Cc1ccc(S(=O)(=O)N2CCC[C@@H]2C(=O)N(Cc2ccc(C3CCCCC3)cc2)c2ccc(C(=O)O)c(O)c2)cc1` [BP2-032] belongs above 50 µM.
With `CCCN(CC(=O)N(Cc1ccc(C2CCCCC2)cc1)c1ccc(C(=O)O)c(O)c1)S(=O)(=O)c1ccc(C)cc1` [BP2-033], the Ki was 8.9 ± 1.4 µM.
Consider `Cc1ccc(S(=O)(=O)N(CC(=O)N(Cc2ccc(C3CCCCC3)cc2)c2ccc(C(=O)O)c(O)c2)CC(C)C)cc1` [BP2-046], for which the Ki turned out to be 8.3 ± 0.3 µM.
The result for `Cc1ccc(S(=O)(=O)N(CC(=O)N(Cc2ccc(C3CCCCC3)cc2)c2ccc(C(=O)O)c(O)c2)Cc2ccccc2C)cc1` [BP2-047] reads 2.6 ± 0.2 µM; that for `Cc1ccc(S(=O)(=O)N(CC(=O)N(Cc2ccc(C3CCCCC3)cc2)c2ccc(C(=O)O)c(O)c2)Cc2cccc(C)c2)cc1` [BP2-056], 2.6 ± 0.2 µM; that for `Cc1ccc(S(=O)(=O)N(CC(=O)N(Cc2ccc(C3CCCCC3)cc2)c2ccc(C(=O)O)c(O)c2)Cc2ccc3ccccc3c2)cc1` [BP2-057], 2.5 ± 1 µM.
To `Cc1ccc(S(=O)(=O)N(CC(=O)N(Cc2ccc(C3CCCCC3)cc2)c2ccc(C(=O)O)c(O)c2)Cc2ccccc2C(F)(F)F)cc1` [BP2-061] belongs 1.8 ± 2.3 µM; to `Cc1ccc(S(=O)(=O)N(CC(=O)N(Cc2ccc(C3CCCCC3)cc2)c2ccc(C(=O)O)c(O)c2)Cc2ccc(F)cc2)cc1` [BP2-065], 3.8 ± 1.6 µM.
Turning to `Cc1ccc(S(=O)(=O)N(CC(=O)N(Cc2ccc(C3CCCCC3)cc2)c2ccc(C(=O)O)c(O)c2)Cc2cccc(F)c2)cc1` [BP2-066], the Ki came out at 4.4 ± 0.3 µM.
To `Cc1ccc(S(=O)(=O)N(CC(=O)N(Cc2ccc(C3CCCCC3)cc2)c2ccc(C(=O)O)c(O)c2)Cc2ccccc2F)cc1` [BP2-067] belongs 5.3 ± 0.3 µM; to `Cc1ccc(S(=O)(=O)N(CC(=O)N(Cc2ccc(C3CCCCC3)cc2)c2ccc(C(=O)O)c(O)c2)Cc2c(F)c(F)c(F)c(F)c2F)cc1` [BP2-068], 4.5 ± 1.9 µM.
The result for `Cc1ccc(S(=O)(=O)N(CC(=O)N(Cc2ccc(C3CCCCC3)cc2)c2ccc(C(=O)O)c(O)c2)Cc2ccncc2)cc1` [BP2-086] reads 23.3 ± 0.7 µM; that for `Cc1ccc(S(=O)(=O)N(CC(=O)N(Cc2ccc(C3CCCCC3)cc2)c2ccc(C(=O)O)c(O)c2)Cc2c(F)cc(F)c(F)c2F)cc1` [BP2-119], 7.7 ± 1 µM; that for `Cc1ccc(S(=O)(=O)N(CC(=O)N(Cc2ccc(C3CCCCC3)cc2)c2ccc(C(=O)O)c(O)c2)Cc2cc(F)c(F)c(F)c2F)cc1` [BP2-120], 11.1 ± 0.6 µM.
The result for `Cc1ccc(S(=O)(=O)N(CC(=O)N(Cc2ccc(C3CCCCC3)cc2)c2ccc(C(=O)O)c(O)c2)Cc2c(F)c(F)cc(F)c2F)cc1` [BP2-121] reads 11.4 ± 0.4 µM; that for `Cc1ccc(S(=O)(=O)N(CC(N)=O)CC(=O)N(Cc2ccc(C3CCCCC3)cc2)c2ccc(C(=O)O)c(O)c2)cc1` [BP2-124], 48.7 ± 14.2 µM; that for `C=CCN(CC(=O)N(Cc1ccc(C2CCCCC2)cc1)c1ccc(C(=O)O)c(O)c1)S(=O)(=O)c1ccc(C)cc1` [BP2-125], 27.9 ± 5 µM.
In the case of `Cc1ccc(S(=O)(=O)N(CC(=O)N(Cc2ccc(C3CCCCC3)cc2)c2ccc(C(=O)O)c(O)c2)Cc2cccnc2)cc1` [BP2-130], the Ki stood at 25.4 ± 0.8 µM.
With `Cc1ccc(S(=O)(=O)N(CC(=O)N(Cc2ccc(C3CCCCC3)cc2)c2ccc(C(=O)O)c(O)c2)Cc2ccccn2)cc1` [BP2-131], the Ki came to 22.6 ± 3 µM.
To `Cc1ccc(S(=O)(=O)N(CC(=O)N(Cc2ccc(C3CCCCC3)cc2)c2ccc(C(=O)O)c(O)c2)Cc2ccc([N+](=O)[O-])cc2)cc1` [BP3-014] belongs 5.5 ± 3.7 µM; to `Cc1ccc(S(=O)(=O)N(CC(=O)N(Cc2ccc(C3CCCCC3)cc2)c2ccc(C(=O)O)c(O)c2)Cc2cccc(N)c2)cc1` [BP3-016], 6.2 ± 1.6 µM; to `Cc1ccc(S(=O)(=O)N(CC(=O)N(Cc2ccc(C3CCCCC3)cc2)c2ccc(C(=O)O)c(O)c2)Cc2ccccc2N)cc1` [BP3-018], 12 ± 0.5 µM.
Consider `Cc1ccc(S(=O)(=O)N(CC(=O)N(Cc2ccc(C3CCCCC3)cc2)c2ccc(C(=O)O)c(O)c2)Cc2cccc([N+](=O)[O-])c2)cc1` [BP3-019], for which the Ki stood at 2.5 ± 2.2 µM.
The result for `Cc1ccc(S(=O)(=O)N(CC(=O)N(Cc2ccc(C3CCCCC3)cc2)c2ccc(C(=O)O)c(O)c2)Cc2ccccc2[N+](=O)[O-])cc1` [BP3-020] reads 5 ± 6.5 µM.
`Cc1ccc(S(=O)(=O)N(CC(=O)N(Cc2ccc(C3CCCCC3)cc2)c2ccc(C(=O)O)c(O)c2)Cc2ccc(C#N)cc2)cc1` [BP3-021]: the Ki was determined as 4.3 ± 0.7 µM.
To `Cc1ccc(S(=O)(=O)N(CC(=O)N(Cc2ccc(C3CCCCC3)cc2)c2ccc(C(=O)O)c(O)c2)Cc2cccc(C#N)c2)cc1` [BP3-023] belongs 6.2 ± 0.8 µM; to `Cc1ccc(S(=O)(=O)N(CC(=O)N(Cc2ccc(C3CCCCC3)cc2)c2ccc(C(=O)O)c(O)c2)Cc2ccccc2C#N)cc1` [BP3-024], 11.3 ± 0.8 µM.
To `Cc1ccc(S(=O)(=O)N(C)CC(=O)N(Cc2ccc(C3CCN(C(=O)OC(C)(C)C)CC3)cc2)c2ccc(C(=O)O)c(O)c2)cc1` [Compound 27KC, 4-(N-(4-(1-(tert-butoxycarbonyl)piperidin-4-yl)benzyl)-2-(N,4-dimethylphenylsulfon-amido)acetamido)-2-hydroxybenzoic acid] belongs 18.7 ± 1.4 µM; to `Cc1ccc(S(=O)(=O)N(CC(=O)N(Cc2ccc(C3CCCCC3)cc2)c2ccc(C(=O)O)c(O)c2)Cc2ccc(Cl)cc2)cc1` [SH3-076], 3.1 ± 0.1 µM; to `Cc1ccc(S(=O)(=O)N(CC(=O)N(Cc2ccc(C3CCCCC3)cc2)c2ccc(C(=O)O)c(O)c2)Cc2cccc(Cl)c2)cc1` [SH3-077], 3 ± 4.1 µM.
To `Cc1ccc(S(=O)(=O)N(CC(=O)N(Cc2ccc(C3CCCCC3)cc2)c2ccc(C(=O)O)c(O)c2)Cc2ccccc2Cl)cc1` [SH3-079] belongs 7.9 ± 0.3 µM; to `CCOC(=O)c1ccc(CN(CC(=O)N(Cc2ccc(C3CCCCC3)cc2)c2ccc(C(=O)O)c(O)c2)S(=O)(=O)c2ccc(C)cc2)cc1` [XW1-053], 3.8 ± 1.5 µM; to `Cc1ccc(S(=O)(=O)N(CC(=O)N(Cc2ccc(C3CCCCC3)cc2)c2ccc(C(=O)O)c(O)c2)Cc2cccc(OC(F)(F)F)c2)cc1` [XW1-055], 4 ± 1.1 µM.
Regarding `Cc1ccc(S(=O)(=O)N(CC(=O)N(Cc2ccc(C3CCCCC3)cc2)c2ccc(C(=O)O)c(O)c2)Cc2ccc(SC(F)(F)F)cc2)cc1` [XW1-057], the Ki amounted to 4.8 ± 0.6 µM.
For `Cc1ccc(S(=O)(=O)N(CC(=O)N(Cc2ccc(C3CCCCC3)cc2)c2ccc(C(=O)O)c(O)c2)Cc2ccc(C(F)(F)F)cc2)cc1` [XW1-059], the Ki is 4.6 ± 1.6 µM.
The result for `Cc1ccc(S(=O)(=O)N(CC(=O)N(Cc2ccc(C3CCCCC3)cc2)c2ccc(C(=O)O)c(O)c2)Cc2ccccc2OC(F)(F)F)cc1` [XW1-061] reads 3.6 ± 0.5 µM; that for `Cc1ccc(S(=O)(=O)N(CC(=O)N(Cc2ccc(C3CCCCC3)cc2)c2ccc(C(=O)O)c(O)c2)Cc2ccc(F)cc2C(F)(F)F)cc1` [XW1-075], 5.5 ± 0.4 µM.

Broadly, the Ki is a measure of affinity in units of concentration, obtained from inhibition or displacement.
